Test results as given in publication PMC12648288, “Drastic Impact of Donor Substituents on Xanthenes in the PDT of Glioblastoma” (JACS Au, 2025).
Read-outs that look alike come from different tables or passages of the source.

Assays:
[1] = n-octanol/PBS distribution (LogP); type: physicochemical; conditions: Distribution coefficient in n-octanol/PBS solution
[2] = test system: L929 healthy fibroblast cells; test: MTT cell viability, dark and PDT; type: cell-based; conditions: Mus musculus
Experimental: (§1) The time- and concentration-dependent effects of NSeAze and NSeMorph on glioblastoma cells were determined by using the MTT assay (Figure S7). In this regard, U118MG and U87MG cells were administered with NSeMorph (0.5–20 μM) and NSeAze (0.01–2.5 μM) for 24 h to evaluate their dark toxicity. Before PDT application, both cell lines were treated as indicated for 1 h and then exposed to 660 nm LED light for 2 and 1 h, respectively (Figure ). Following overnight incubation, the resulting cell viability was calculated and compared to the effect of both compounds in the absence of irradiation. […]
(§2) Cell Culture and Treatment
(§3) Human glioblastoma cell lines (U118MG and U87MG) and healthy mouse fibroblast cells (L929) were cultured in DMEM high glucose medium supplemented with 10% fetal bovine serum (FBS), 2 mM glutamine, 1% penicillin/stremptomycin, 0.5% amphotericin B, and incubated at 37 °C with 5% CO2. NSeMorph and NSeAze were dissolved in cell culture-grade DMSO and further diluted in complete medium for experimental use. For phototoxicity analysis, cells were administered with NSeMorph […]
(§4) mW/cm2) irradiation for 2 h in NSeMorph-treated groups and 1 h in NSeAze-treated groups. Then, each group were incubated for further 24 h in the dark to allow for resting. On the other hand, the dark toxicity of both agents was detected following the same treatment under identical conditions without LED irradiation. To determine the involvement of distinct ROS types, cells were pretreated for 1 h with selective […]
(§5) scavengers prior to photosensitizer exposure. The scavengers included NAC (5 mM), NaN3 (5 mM), histidine (5 mM), Tiron (100 µM), mannitol (25 mM) and Trolox (25 µM).
(§6) Cell viability was then assessed following irradiation. For index calculations, all cells were treated with the increasing concentrations (0.5-500 µM) of NSeMorph and NSeAze for 24 h. Final DMSO concentrations were kept below 0.5% (v/v) in all […]
(§7) PI=IC50, dark /IC50, light
(§8) SI= IC50, light, healthy cells/IC50, light, cancer cells
(§9) TI= IC50, dark, healthy cells/IC50, light, cancer cells
(§10) The viability of cells treated with NSeMorph and NSeAze was determined with MTT (3-[4,5-dimethylthiazol-2-yl]-2,5-diphenyltetrazoliumbromide) assay. Following the administration of both compounds, the medium was discarded and cells were treated with fresh media containing MTT (0.5 mg/ml) for 2-4 h at 37 °C. Formazan crystals were then solubilized in 10% SDS in 0.01 N HCl, and absorbance was measured at 490 and 570 nm wavelength using microplate reader (Multiskan Sky, Thermo Scientific). Data were normalized to vehicle (DMSO)-treated controls. IC50 values were calculated using nonlinear regression analysis in GraphPad Prism 9.02 (GraphPad Software Inc.). All experiments were performed in technical and biological replicates

[3] = test system: U118MG glioblastoma cells; test: MTT cell viability, dark and PDT; type: cell-based, human
Experimental: as §1, §2, §3, §4, §5, §6, §7, §8, §9, §10

U87MG glioblastoma cells = test: MTT cell viability, dark and PDT; type: cell-based, human
Experimental: as §1, §2, §3, §4, §5, §6, §7, §8, §9, §10

U118MG cells = test: AO/EtBr staining for cell death; type: cell-based, human; conditions: IC50 concentration, after irradiation
Experimental: (§11) The rapid mitochondrial disruption often shifts the balance toward irreversible cell death pathways. […] In this regard, acridine orange/ethidium bromide (AO/EtBr) staining was performed to detect cell death. […]
(§12) Acridine Orange/Ethidium Bromide (AO/EtBr) staining for cell death
(§13) Dual acridine orange/ethidium bromide (AO/EtBr) staining was performed to discriminate live, early apoptotic and/or necrotic cells on the basis of membrane permeability.1,2 U87MG and U118MG cells were seeded in 24-well plates at a density of 5 × 10⁴ cells/well and treated with the IC₅₀ concentrations of the photosensitizers NSeMorph and NSeAze. After irradiation, cells were rested at 37 °C for 20 minutes, followed by staining with AO (2.5 µg/ml) and EtBr (2.5 µg/ml) in serum-free DMEM […]
(§14) under dark conditions for an additional 20-30 minutes. Subsequently, cells were washed with 1X PBS, and confocal images were taken at 500/525 nm (ex/em) for AO […]
(§15) Ta b l e S3. Comparison of recently reported PSs for the treatment of glioblastoma multiforme.
(§16) Photosensitizer Abs* Mwt IC (μM) Cell Line PI Ref. […]

U87MG cells = test: AO/EtBr staining for cell death; type: cell-based, human; conditions: IC50 concentration, after irradiation
Experimental: as §11, §12, §13, §14, §15, §16

[4] = L929, 1 h incubation, 660 nm LED 2 h (NSeMorph) or 1 h (NSeAze), read-out: IC50 (light)
[5] = L929, dark, 24 h, read-out: IC50 (dark)
[6] = Homo sapiens, U-118-MG, 1 h incubation, 660 nm LED 2 h (NSeMorph) or 1 h (NSeAze), read-out: IC50 (light)
[7] = Homo sapiens, U-118-MG, 24 h, dark, 24 h, read-out: IC50 (dark)
[8] = Homo sapiens, U-87 MG, 1 h incubation, 660 nm LED 2 h (NSeMorph) or 1 h (NSeAze), read-out: IC50 (light)
[9] = Homo sapiens, U-87 MG, 24 h, dark, 24 h, read-out: IC50 (dark)
[10] = 1 h incubation, 660 nm LED 2 h (NSeMorph) or 1 h (NSeAze), read-out: IC50 (light)

SMILES	logP [1]	IC50 [2, 4] [µM]	IC50 [2, 5] [µM]	IC50 ([3]; Homo sapiens, U-118-MG, 1 h, 660 nm LED 1 h, read-out: IC50 (light)) [µM]	IC50 [3, 6] [µM]	IC50 [3, 7] [µM]	IC50 (U87MG glioblastoma cells; Homo sapiens, U-87 MG, 1 h, 660 nm LED 1 h, read-out: IC50 (light)) [µM]	IC50 (U87MG glioblastoma cells; [8]) [µM]	IC50 (U87MG glioblastoma cells; [9]) [µM]	IC50 (U87MG glioblastoma cells; dark, 24 h, read-out: IC50 (dark)) [µM]	Cell death type (AO/EtBr) (U118MG cells)	Cell death type (AO/EtBr) (U87MG cells)	IC50 [3, 10] [µM]	IC50 (U87MG glioblastoma cells; [10]) [µM]
c1cc2nc3ccc(=[N+]4CCC4)cc-3[se]c2cc1N1CCC1 [NSeAze]	0.81	< 1	129 ± 5.1	0.461	0.46 ± 0.02	60.4 ± 2.6	0.456	0.38	65.8 ± 2.51	65.9 ± 2.5	late apoptosis/necrosis	early apoptosis		
c1cc2nc3ccc(=[N+]4CCOCC4)cc-3[se]c2cc1N1CCOCC1 [NSeMorph]	-0.42	> 20	> 500		8	375 ± 17.4		15.8	> 500		early apoptotic pattern	early apoptosis	8.02 ± 0.34	15.8 ± 0.84
